Structures are written as SMILES. Numbers after ± are expanded uncertainties.

For series [1] the following is noted: Crystal; DSC.
A short description of series [2]: Molar enthalpy of transition or fusion. The note with it: Crystal; DSC.

For `CCCCCCCCCCCC(=O)O` [dodecanoic acid], the Triple point temperature in series [1] is given as 317.71 ± 0.93 K. Further, the “Molar enthalpy of transition or fusion” value in series [2] worked out at 8.54 ± 0.598 kcal/mol.

`CCCCCCCCCCCCCCCCCC(=O)O` [octadecanoic acid]: in series [1], the Triple point temperature turned out to be 344.08 ± 0.93 K. Besides, in series [2], the “Molar enthalpy of transition or fusion” value came to 14.5 ± 0.86 kcal/mol.

`CCCCCCCCCCCCCCCC(=O)O` [hexadecanoic acid]: in series [1], the Triple point temperature worked out at 336.13 ± 0.93 K. Besides, in series [2], the “Molar enthalpy of transition or fusion” value was determined as 12.1 ± 0.765 kcal/mol.
